Source: patent US20250154138A1, “Small Molecule IL-17A Modulators” (BeiGene, Ltd., priority 2022, published 2025)

Legend:
[1] = target: human IL-17A / human IL-17RA (Homo sapiens (Human), UniProt Q16552); experiment: Human IL-17A biochemical assay (HTRF, blocking of IL-17A binding to IL-17RA); conditions: 0.4 nM IL-17A, 0.3 nM IL-17RA, max compound concentration 10 uM
Summary of the method: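 Compounds (10-point, 2.7-fold dilution from 10 uM) preincubated 3 h at RT with 0.4 nM human IL-17A, followed by 1 h with 0.3 nM IL-17RA and 1 h with Tb-cryptate/XL665 antibodies; buffer 20 mM HEPES pH 7.5, 0.1% BSA. Inhibition derived from HTRF fluorescence ratio; IC50 by four-parameter logistic fitting.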

[2] = test system: IL-17-induced GROα secretion from HT-29 cells; experiment: GROα release assay in human colorectal adenocarcinoma epithelial cell (HT-29, ELISA); assay type: cell-based; conditions: Homo sapiens, HT-29, 48 h, 10 ng/mL IL-17A, highest concentration 10 μM, read-out: Cellular assay HT29 cell/CXCL1 IC50
Summary of the method: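 IC50 values come from four-parameter fits of GROα levels, quantified by ELISA (450 nm, standard curve) in supernatants. Compounds, 4-fold serially diluted from 10 μM, were mixed 15 min with IL-17A (10 ng/mL final) before 48 h incubation with HT-29 cells at 37°C.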

Chain of human IL-17A / human IL-17RA (Q16552 24-155): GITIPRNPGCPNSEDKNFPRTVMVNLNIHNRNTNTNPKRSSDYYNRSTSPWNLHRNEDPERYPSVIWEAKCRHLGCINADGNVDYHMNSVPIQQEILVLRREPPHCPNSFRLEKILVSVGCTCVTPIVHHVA

Row | SMILES | IC50 [1] [nM] | IC50 [2] [nM]
1 | COCC1(N2C[C@@H](C(C)C)NC2=O)Cc2ccc(NC(=O)[C@@H](NC(=O)c3nonc3C)C(C3CC3)C3CC3)cc2C1 (stereo partly drawn) [Example 244, N-((2S)-1,1-dicyclopropyl-3-((2-((R)-4-isopropyl-2-oxoimidazolidin-1-yl)-2-(methoxymethyl)-2,3-dihydro-1H-inden-5-yl)amino)-3-oxopropan-2-yl)-4-methyl-1,2,5-oxadiazole-3-carboxamide] | 2130 | 1570
2 | Cn1nccc1C(=O)N[C@H](C(=O)Nc1ccc2c(c1)CC(N1C[C@@H](C(F)(F)F)NC1=O)C2)C(C1CC1)C1CC1 (stereo partly drawn) [Example 197, N-((2S)-1,1-dicyclopropyl-3-oxo-3-((2-((S)-2-oxo-4-(trifluoromethyl)imidazolidin-1-yl)-2,3-dihydro-1H-inden-5-yl)amino)propan-2-yl)-1-methyl-1H-pyrazole-5-carboxamide] | 80.6 | 397
3 | CNC(=O)C1(N2C[C@@H](C(C)C)NC2=O)Cc2ccc(NC(=O)[C@@H](NC(=O)c3cccc(Oc4c(C)n[nH]c4C)c3)C3CCCCC3)cc2C1 (stereo partly drawn) [Example 149, 5-((S)-2-cyclohexyl-2-(3-((3,5-dimethyl-1H-pyrazol-4-yl)oxy)benzamido)acetamido)-2-((R)-4-isopropyl-2-oxoimidazolidin-1-yl)-N-methyl-2,3-dihydro-1H-indene-2-carboxamide] | 92 | 44.3
4 | CNC(=O)C1(N2C[C@@H](C(C)C)NC2=O)Cc2ccc(NC(=O)[C@@H](NC(=O)c3nonc3C)C3CCCCC3)cc2C1 (stereo partly drawn) [Example 40, N-((1S)-1-cyclohexyl-2-((2-((R)-4-isopropyl-2-oxoimidazolidin-1-yl)-2-(methylcarbamoyl)-2,3-dihydro-1H-inden-5-yl)amino)-2-oxoethyl)-4-methyl-1,2,5-oxadiazole-3-carboxamide] | 25 | 143
5 | CNC(=O)C1(N2CC3(CC3)CNC2=O)Cc2ccc(NC(=O)C(NC(=O)c3ccnn3C)C3CCC(C(C)(F)F)CC3)cc2C1 (stereo not shown) [Example 143, N-(1-(4-(1,1-difluoroethyl)cyclohexyl)-2-((2-(methylcarbamoyl)-2-(6-oxo-5,7-diazaspiro[2.5]octan-5-yl)-2,3-dihydro-1H-inden-5-yl)amino)-2-oxoethyl)-1-methyl-1H-pyrazole-5-carboxamide] | 163 | 772
6 | Cc1nonc1C(=O)N[C@H](C(=O)Nc1ccc2c(c1)CC(C(=O)Nc1cccc(F)c1)(N1CC3(CC3)CNC1=O)C2)C(C1CC1)C1CC1 (stereo partly drawn) [Example 216, N-((2S)-1,1-dicyclopropyl-3-((2-((3-fluorophenyl)carbamoyl)-2-(6-oxo-5,7-diazaspiro[2.5]octan-5-yl)-2,3-dihydro-1H-inden-5-yl)amino)-3-oxopropan-2-yl)-4-methyl-1,2,5-oxadiazole-3-carboxamide] | 23.3 | 58.9
7 | Cc1nonc1C(=O)N[C@H](C(=O)Nc1ccc2c(c1)CC(c1nc3cccc(C(F)(F)F)c3[nH]1)(N1CC3(CC3)CNC1=O)C2)C1CCC(F)(F)CC1 (stereo partly drawn) [Example 192, N-((1S)-1-(4,4-difluorocyclohexyl)-2-oxo-2-((2-(6-oxo-5,7-diazaspiro[2.5]octan-5-yl)-2-(7-(trifluoromethyl)-1H-benzo[d]imidazol-2-yl)-2,3-dihydro-1H-inden-5-yl)amino)ethyl)-4-methyl-1,2,5-oxadiazole-3-carboxamide] | 1660 | 1240
8 | Cn1nccc1C(=O)N[C@H](C(=O)Nc1ccc2c(c1)CC(N1C[C@@H](C(F)(F)F)NC1=O)C2)C1CCCCC1 (stereo partly drawn) [Example 146, N-((1S)-1-cyclohexyl-2-oxo-2-((2-((S)-2-oxo-4-(trifluoromethyl)imidazolidin-1-yl)-2,3-dihydro-1H-inden-5-yl)amino)ethyl)-1-methyl-1H-pyrazole-5-carboxamide] | 204 | 768
9 | Cc1nonc1C(=O)N[C@H](C(=O)Nc1ccc2c(c1)OC(CN1C[C@@H](C(C)C)NC1=O)C2)C(C1CC1)C1CC1 (stereo partly drawn) [Example 271, N-((2S)-1,1-dicyclopropyl-3-((2-(((R)-4-isopropyl-2-oxoimidazolidin-1-yl)methyl)-2,3-dihydrobenzofuran-6-yl)amino)-3-oxopropan-2-yl)-4-methyl-1,2,5-oxadiazole-3-carboxamide] | 268 | 1380
10 | Cn1nccc1C(=O)N[C@H](C(=O)Nc1ccc2c(c1)CC(C(O)C(F)(F)F)(N1CC3(CC3)CNC1=O)C2)C1CCCCC1 (stereo partly drawn) [Example 194, N-((1S)-1-cyclohexyl-2-oxo-2-((2-(6-oxo-5,7-diazaspiro[2.5]octan-5-yl)-2-(2,2,2-trifluoro-1-hydroxyethyl)-2,3-dihydro-1H-inden-5-yl)amino)ethyl)-1-methyl-1H-pyrazole-5-carboxamide] | 33.8 | 21
11 | CC(C)[C@@H]1CN(C2(C(=O)NCC(F)(F)F)Cc3ccc(NC(=O)[C@@H](NC(=O)c4ccnn4C)C4CCCCC4)cc3C2)C(=O)N1 (stereo partly drawn) [Example 68, N-((1S)-1-cyclohexyl-2-((2-((R)-4-isopropyl-2-oxoimidazolidin-1-yl)-2-((2,2,2-trifluoroethyl)carbamoyl)-2,3-dihydro-1H-inden-5-yl)amino)-2-oxoethyl)-1-methyl-1H-pyrazole-5-carboxamide] | 30 | 37
12 | CNC(=O)C1(N2CC(C)(C3CC3)CNC2=O)Cc2ccc(NC(=O)[C@@H](NC(=O)c3ccnn3C)C3CCCCC3)cc2C1 (stereo partly drawn) [Example 113, N-((1S)-1-cyclohexyl-2-((2-(5-cyclopropyl-5-methyl-2-oxotetrahydropyrimidin-1(2H)-yl)-2-(methylcarbamoyl)-2,3-dihydro-1H-inden-5-yl)amino)-2-oxoethyl)-1-methyl-1H-pyrazole-5-carboxamide] | 53 | 457
13 | CNC(=O)C1(N2C[C@@H](C(C)C)NC2=O)Cc2ccc(NC(=O)C(NC(=O)c3ccnn3C)C3CCCC(C)C3)cc2C1 (stereo partly drawn) [Example 104, N-(2-((2-((R)-4-isopropyl-2-oxoimidazolidin-1-yl)-2-(methylcarbamoyl)-2,3-dihydro-1H-inden-5-yl)amino)-1-(3-methylcyclohexyl)-2-oxoethyl)-1-methyl-1H-pyrazole-5-carboxamide] | 12 | 23.6
14 | CCC1CCC(C(NC(=O)c2ccnn2C)C(=O)Nc2ccc3c(c2)CC(C(=O)NC)(N2C[C@@H](C(C)C)NC2=O)C3)CC1 (stereo partly drawn) [Example 101, N-(1-(4-ethylcyclohexyl)-2-((2-((R)-4-isopropyl-2-oxoimidazolidin-1-yl)-2-(methylcarbamoyl)-2,3-dihydro-1H-inden-5-yl)amino)-2-oxoethyl)-1-methyl-1H-pyrazole-5-carboxamide] | 7.5 | 45.2
15 | CNC(=O)C1(N2C[C@@H](C(C)C)NC2=O)Cc2ccc(NC(=O)[C@@H](NC(=O)c3ccnn3C)C3CCCCCC3)cc2C1 (stereo partly drawn) [Example 47, N-((1S)-1-cycloheptyl-2-((2-((R)-4-isopropyl-2-oxoimidazolidin-1-yl)-2-(methylcarbamoyl)-2,3-dihydro-1H-inden-5-yl)amino)-2-oxoethyl)-1-methyl-1H-pyrazole-5-carboxamide] | 11 | 11.6
16 | CC[C@H]1CC[C@H]([C@H](NC(=O)c2ccnn2C)C(=O)Nc2ccc3c(c2)CC(COC)(N2CC4(CC4)CNC2=O)C3)CC1 (stereo partly drawn) [Example 165, N-((1S)-1-((1r,4S)-4-ethylcyclohexyl)-2-((2-(methoxymethyl)-2-(6-oxo-5,7-diazaspiro[2.5]octan-5-yl)-2,3-dihydro-1H-inden-5-yl)amino)-2-oxoethyl)-1-methyl-1H-pyrazole-5-carboxamide] | 173 | 322
17 | CNC(=O)C1(N2CC3(CNC2=O)CC(F)(F)C3)Cc2ccc(NC(=O)[C@@H](NC(=O)c3ccnn3C)C3CCCCC3)cc2C1 (stereo partly drawn) [Example 174, N-((1S)-1-cyclohexyl-2-((2-(2,2-difluoro-7-oxo-6,8-diazaspiro[3.5]nonan-6-yl)-2-(methylcarbamoyl)-2,3-dihydro-1H-inden-5-yl)amino)-2-oxoethyl)-1-methyl-1H-pyrazole-5-carboxamide] | 264 | 485
18 | COc1ccc(CNC(=O)C2(N3C[C@@H](C(C)C)NC3=O)Cc3ccc(NC(=O)[C@@H](NC(=O)c4ccnn4C)C4CCCCC4)cc3C2)cc1 (stereo partly drawn) [Example 150, N-((1S)-1-cyclohexyl-2-((2-((R)-4-isopropyl-2-oxoimidazolidin-1-yl)-2-((4-methoxybenzyl)carbamoyl)-2,3-dihydro-1H-inden-5-yl)amino)-2-oxoethyl)-1-methyl-1H-pyrazole-5-carboxamide] | 20 | 46.5
19 | CNC(=O)C1(N2C[C@@H](C(C)C)NC2=O)Cc2ccc(NC(=O)[C@@H](NC(=O)c3cccnc3)C3CCCCC3)cc2C1 (stereo partly drawn) [Example 58, N-((1S)-1-cyclohexyl-2-((2-((R)-4-isopropyl-2-oxoimidazolidin-1-yl)-2-(methylcarbamoyl)-2,3-dihydro-1H-inden-5-yl)amino)-2-oxoethyl)nicotinamide] | 595 | 1440
20 | Cc1nonc1C(=O)N[C@H](C(=O)Nc1ccc2c(c1)CC(c1ccc(F)cc1)(N1C[C@@H](C(C)C)NC1=O)C2)C(C1CC1)C1CC1 (stereo partly drawn) [Example 251, N-((2S)-1,1-dicyclopropyl-3-((2-(4-fluorophenyl)-2-((R)-4-isopropyl-2-oxoimidazolidin-1-yl)-2,3-dihydro-1H-inden-5-yl)amino)-3-oxopropan-2-yl)-4-methyl-1,2,5-oxadiazole-3-carboxamide] | 1510 | 1510
